Several values for one entry are separate records, joined by “and”; a condition that tells them apart may be missing. Equal entries are not always repeated. Inconclusive results and toxic doses are left out. The calls were made as follows: active = survival T/C of 150% or more; inactive = T/C below 125% in these data.
Test system: P388 leukemia ip, CD2F1 mice, survival T/C
Assay: NCI In Vivo Anticancer Drug Screen. Data for tumor model P388 Leukemia (intraperitoneal) in CD2F1 (CDF1) mice
Details: endpoint: median survival time, higher = longer survival
How it was run: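 Mice carrying the transplanted tumor received test compound or vehicle. Survival was recorded in each group, and the value is the treated-group measurement divided by that of the vehicle-treated control group.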

[1] = dose: 50.0 mg/kg/injection, schedule: Q01DX009 (ip), vehicle: saline with Tween-80
[2] = dose: 100.0 mg/kg/injection, schedule: Q01DX001 (ip), vehicle: saline with Tween-80
[3] = dose: 100.0 mg/kg/injection, schedule: Q01DX009 (ip), vehicle: saline with Tween-80
[4] = dose: 200.0 mg/kg/injection, schedule: Q01DX001 (ip), vehicle: saline with Tween-80
[5] = dose: 200.0 mg/kg/injection, schedule: Q01DX009 (ip), vehicle: saline with Tween-80
[6] = dose: 400.0 mg/kg/injection, schedule: Q01DX001 (ip), vehicle: saline with Tween-80
[7] = dose: 50.0 mg/kg/injection, schedule: Q01DX005 (ip), vehicle: saline with Tween-80
[8] = dose: 100.0 mg/kg/injection, schedule: Q01DX005 (ip), vehicle: saline with Tween-80
[9] = dose: 200.0 mg/kg/injection, schedule: Q01DX005 (ip), vehicle: saline with Tween-80
[10] = dose: 100.0 mg/kg/injection, schedule: Q01DX009 (ip), vehicle: saline
[11] = dose: 200.0 mg/kg/injection, schedule: Q01DX009 (ip), vehicle: saline
[12] = dose: 60.0 mg/kg/injection, schedule: Q01DX005 (ip), vehicle: saline with Tween-80
[13] = dose: 120.0 mg/kg/injection, schedule: Q01DX005 (ip), vehicle: saline with Tween-80
[14] = dose: 240.0 mg/kg/injection, schedule: Q01DX005 (ip), vehicle: saline with Tween-80

Measured: T/C

CCOC(=O)c1c[nH][nH]c1=O
inactive: dose: 25.0 mg/kg/injection, schedule: Q01DX009 (ip), vehicle: saline with Tween-80 95 % of control | [1] 93 % of control | [2] 98 % of control | [3] 101 % of control | [4] 106 % of control | [5] 100 % of control | [6] 94 % of control

CCC1(CC)C(=O)NC(=O)[N]([Sn]([CH2]C)([CH2]C)[N]2C(=O)NC(=O)C(CC)(CC)C2=O)C1=O
inactive: dose: 1.56 mg/kg/injection, schedule: Q01DX005 (ip), vehicle: Klucel (hydroxypropylcellulose) (HPC) 90 % of control | dose: 3.12 mg/kg/injection, schedule: Q01DX005 (ip), vehicle: Klucel (hydroxypropylcellulose) (HPC) 111 % of control and 117 % of control | dose: 6.25 mg/kg/injection, schedule: Q01DX005 (ip), vehicle: Klucel (hydroxypropylcellulose) (HPC) 120 % of control | dose: 12.5 mg/kg/injection, schedule: Q01DX005 (ip), vehicle: Klucel (hydroxypropylcellulose) (HPC) 111 % of control

Cc1nc(C)c(C(=O)O)cc1C(=O)O
inactive: dose: 100.0 mg/kg/injection, schedule: Q04DX003 (ip), vehicle: saline 100 % of control | dose: 200.0 mg/kg/injection, schedule: Q04DX003 (ip), vehicle: saline 95 % of control | dose: 400.0 mg/kg/injection, schedule: Q04DX003 (ip), vehicle: saline 86 % of control

N#CCCOCN(COCCC#N)c1nc(N(COCCC#N)COCCC#N)nc(N(COCCC#N)COCCC#N)n1
inactive: dose: 7.5 mg/kg/injection, schedule: Q01DX005 (ip), vehicle: DMSO 97 % of control | dose: 15.0 mg/kg/injection, schedule: Q01DX005 (ip), vehicle: DMSO 94 % of control | dose: 30.0 mg/kg/injection, schedule: Q01DX005 (ip), vehicle: DMSO 94 % of control

CNC(=O)OCc1onc(-c2ccccc2)c1COC(=O)NC
inactive: dose: 12.5 mg/kg/injection, schedule: Q01DX005 (ip), vehicle: distilled water + Tween-80 98 % of control | dose: 25.0 mg/kg/injection, schedule: Q01DX005 (ip), vehicle: distilled water + Tween-80 100 % of control | dose: 50.0 mg/kg/injection, schedule: Q01DX005 (ip), vehicle: distilled water + Tween-80 98 % of control | dose: 100.0 mg/kg/injection, schedule: Q01DX005 (ip), vehicle: distilled water + Tween-80 100 % of control | dose: 200.0 mg/kg/injection, schedule: Q01DX005 (ip), vehicle: distilled water + Tween-80 98 % of control

CSC1=C(C#N)C(=O)N=S(C)(C)=N1
inactive: [7] 108 % of control | [8] 110 % of control | [9] 100 % of control

CCc1c2c(cc3c1[nH]c1ccccc13)C(=O)N(c1ccc(OC)cc1)C2=O
inactive: dose: 50.0 mg/kg/injection, schedule: Q01DX005 (ip), vehicle: Klucel (hydroxypropylcellulose) (HPC) 92 % of control | dose: 100.0 mg/kg/injection, schedule: Q01DX005 (ip), vehicle: Klucel (hydroxypropylcellulose) (HPC) 91 % of control | dose: 200.0 mg/kg/injection, schedule: Q01DX005 (ip), vehicle: Klucel (hydroxypropylcellulose) (HPC) 90 % of control

CC1(C)SC(C)(C)N2C(=O)[C@H]3N(C(=O)[C@@H]21)C(C)(C)SC3(C)C
inactive: dose: 12.5 mg/kg/injection, schedule: Q01DX005 (ip), vehicle: saline with Tween-80 100 % of control | dose: 25.0 mg/kg/injection, schedule: Q01DX005 (ip), vehicle: saline with Tween-80 94 % of control | [7] 99 % of control and 91 % of control | [8] 94 % of control | [9] 97 % of control

COC(=O)C1c2cc3c(c(O)c2C(O)CC1(C)O)C(=O)c1c(O)cc2c(c1C3=O)OC1OC2(C)C(O)C(N(C)C)C1O (centres undefined)
inactive: dose: 25.0 mg/kg/injection, schedule: Q01DX010 (ip), vehicle: saline 100 % of control | dose: 50.0 mg/kg/injection, schedule: Q01DX010 (ip), vehicle: saline 90 % of control | dose: 100.0 mg/kg/injection, schedule: Q01DX010 (ip), vehicle: saline 100 % of control | dose: 200.0 mg/kg/injection, schedule: Q01DX010 (ip), vehicle: saline 100 % of control

COC(C(=O)C1=C2Oc3c4c(cc(O)c3C(=O)C2C2=C(CCCC2)C1=O)OC(C)(C)C=C4)C(C)CCC=C(C)C (centres undefined)
inactive: dose: 50.0 mg/kg/injection, schedule: Q01DX005 (ip), vehicle: saline 112 % of control | dose: 200.0 mg/kg/injection, schedule: Q01DX005 (ip), vehicle: saline 90 % of control

CC(=O)CS(C)(=O)=O
inactive: dose: 25.0 mg/kg/injection, schedule: Q01DX009 (ip), vehicle: saline 103 % of control | dose: 50.0 mg/kg/injection, schedule: Q01DX009 (ip), vehicle: saline 102 % of control | [10] 101 % of control | [11] 98 % of control

N#Cc1c(-c2nc3ccccc3s2)c(=O)oc2cc(O)ccc12
inactive: [12] 99 % of control | [13] 95 % of control | [14] 95 % of control

CC(C)(C)[OH+][O-].[O-]c1ccc(Cl)cc1C=Nc1ccc(Cl)cc1[O-].[O]=[V]
inactive: dose: 15.0 mg/kg/injection, schedule: Q01DX005 (ip), vehicle: saline with Tween-80 100 % of control | dose: 30.0 mg/kg/injection, schedule: Q01DX005 (ip), vehicle: saline with Tween-80 100 % of control | [12] 101 % of control and 93 % of control

Cc1cccc2cc3ccccc3c[n+]12
inactive: dose: 6.25 mg/kg/injection, schedule: Q01DX005 (ip), vehicle: saline + Tween-80 + alcohol 101 % of control | dose: 12.5 mg/kg/injection, schedule: Q01DX005 (ip), vehicle: saline + Tween-80 + alcohol 101 % of control | dose: 25.0 mg/kg/injection, schedule: Q01DX005 (ip), vehicle: saline + Tween-80 + alcohol 101 % of control

O=C1C2C3CCC(C2C(=O)N1COP(=O)(O)O)C1C2C(=O)N(COP(=O)(O)O)C(=O)C2C31 (centres undefined)
inactive: dose: 40.0 mg/kg/injection, schedule: Q01DX009 (ip), vehicle: water 103 % of control | dose: 80.0 mg/kg/injection, schedule: Q01DX009 (ip), vehicle: water 105 % of control | dose: 160.0 mg/kg/injection, schedule: Q01DX009 (ip), vehicle: water 105 % of control | dose: 320.0 mg/kg/injection, schedule: Q01DX009 (ip), vehicle: water 124 % of control

COc1ccccc1C(=O)CCN(C)C
inactive: dose: 15.0 mg/kg/injection, schedule: Q01DX005 (ip), vehicle: saline 98 % of control | dose: 30.0 mg/kg/injection, schedule: Q01DX005 (ip), vehicle: saline 112 % of control | dose: 60.0 mg/kg/injection, schedule: Q01DX005 (ip), vehicle: saline 114 % of control and 97 % of control

C=C1C(=O)OC2C1CCC(=C)C1CC(OC3OC(CO)C(O)C(O)C3O)C(=C)C12 (centres undefined)
inactive: dose: 50.0 mg/kg/injection, schedule: Q04DX003 (ip), vehicle: saline with Tween-80 93 % of control | dose: 100.0 mg/kg/injection, schedule: Q04DX003 (ip), vehicle: saline with Tween-80 105 % of control and 86 % of control | dose: 200.0 mg/kg/injection, schedule: Q04DX003 (ip), vehicle: saline with Tween-80 104 % of control | dose: 400.0 mg/kg/injection, schedule: Q04DX003 (ip), vehicle: saline with Tween-80 104 % of control and 124 % of control

CNCCc1ccc(O)c(O)c1
inactive: [10] 108 % of control and 118 % of control | [11] 111 % of control and 98 % of control | dose: 400.0 mg/kg/injection, schedule: Q01DX009 (ip), vehicle: saline 116 % of control and 90 % of control

C#CCN(C)/N=N/c1nc[nH]c1C(N)=O
inactive: dose: 12.5 mg/kg/injection, schedule: Q01DX009 (ip), vehicle: Klucel (hydroxypropylcellulose) (HPC) 115 % of control | dose: 25.0 mg/kg/injection, schedule: Q01DX009 (ip), vehicle: Klucel (hydroxypropylcellulose) (HPC) 122 % of control | dose: 50.0 mg/kg/injection, schedule: Q01DX009 (ip), vehicle: Klucel (hydroxypropylcellulose) (HPC) 120 % of control | dose: 100.0 mg/kg/injection, schedule: Q01DX009 (ip), vehicle: Klucel (hydroxypropylcellulose) (HPC) 112 % of control

CCOC(=O)c1cnc2cc3c(c[nH]n3C(c3ccccc3)(c3ccccc3)c3ccccc3)cc2c1=O
inactive: [1] 94 % of control | [3] 96 % of control | [5] 97 % of control

CSc1nc2c(=O)[nH]cnc2s1
inactive: [12] 105 % of control | [13] 102 % of control | [14] 96 % of control

Cc1nn(C)c(=O)c2c3ccccc3nn12
inactive: [2] 100 % of control | [4] 95 % of control | [6] 100 % of control
